Earlier results in paper PMC9599640.

Set-up: method as in PMID 27217383
Settings: phase I trial of abemaciclib

## CCN1CCN(Cc2ccc(Nc3ncc(F)c(-c4cc(F)c5nc(C)n(C(C)C)c5c4)n3)nc2)CC1 [abemaciclib]
  MTD: 200 mg BID
